# Assay: Chemical stability assessment in formulation (UPLC-UV-MS purity loss at 37° C.)
# Format: physicochemical
# Details: 8 mM phosphate buffer pH 7.4, 1 mg/mL, 2 weeks
# Experimental: The assay was performed to investigate the extend of chemical degradation in vitro over time upon incubation at 37° C. for a period of 2 weeks.
# Peptide solutions were prepared by dissolving freeze-dried powder in 8 mM phosphate buffer pH 7.4 to a target of 1 mg/mL. The pH of peptide solutions was adjusted to 7.4 with 0.02 M HCl or 0.02 M NaOH. Samples were filled in Agilent HPLC vials with fixed insert. Vials were capped to prevent evaporation. The HPLC vials were incubated at 37° C. and samples were withdrawn at different time points over a period of 2 weeks, flash frozen at −80° C., and stored at −20° C. until analysis.
# A flow-rate of 100 μL/min was delivered with a Binary solvent manager pump having 0.1% formic acid in water as solvent A and 0.1% formic acid in acetonitrile as solvent B. Gradient elution was carried out using 20% B from 0 to 2 min followed by 20 to 50% B from 2 to 20 min in a total run time of 30 min.
row,Purity loss per week at 37° C. [%],Structure (SMILES)
1,1.0,CC[C@H](C)[C@H](NC(=O)[C@H](CCC(=O)O)NC(=O)[C@H](CCC(=O)O)NC(=O)[C@H](CC(C)C)NC(=O)[C@H](CC(C)C)NC(=O)[C@@H](NC(=O)[C@H](CO)NC(=O)[C@H](Cc1ccc(O)cc1)NC(=O)[C@H](CC(=O)O)NC(=O)[C@H](CO)NC(=O)[C@@H](NC(=O)[C@H](Cc1ccccc1)NC(=O)[C@@H](NC(=O)CNC(=O)[C@H](CCC(=O)O)NC(=O)C(C)(C)NC(=O)[C@@H](N)Cc1ccc(O)cc1)[C@@H](C)O)[C@@H](C)O)[C@@H](C)CC)C(=O)N[C@@H](C)C(=O)N[C@@H](C)C(=O)N[C@@H](CCCNC(=N)N)C(=O)N[C@@H](CCC(=O)O)C(=O)N[C@@H](Cc1ccccc1)C(=O)N[C@H](C(=O)N[C@@H](CCC(=O)O)C(=O)N[C@@H](Cc1c[nH]c2ccccc12)C(=O)N[C@@H](CC(C)C)C(=O)N[C@@H](CC(C)C)C(=O)N[C@@H](C)C(=O)NCC(=O)NCC(=O)N1CCC[C@H]1C(=O)N[C@@H](CO)C(=O)N[C@@H](CO)C(=O)NCC(=O)N[C@@H](C)C(=O)NCC(=O)N[C@@H](CCC(N)=O)C(=O)N[C@@H](C)C(=O)N1CCC[C@H]1C(=O)NCC(=O)N[C@@H](CCC(N)=O)C(=O)N[C@@H](C)C(=O)N1CCC[C@H]1C(=O)NCC(=O)N[C@@H](C)C(=O)N[C@@H](CO)C(=O)N[C@@H](Cc1c[nH]cn1)C(=O)N[C@@H](CC(C)C)C(=O)N[C@@H](CO)C(=O)N[C@H](C(=O)N[C@@H](C)C(=O)N[C@@H](CCC(N)=O)C(=O)N[C@H](C(=O)N[C@@H](CCC(N)=O)C(=O)N[C@@H](CCCNC(=N)N)C(=O)N[C@@H](CC(C)C)C(=O)N[C@@H](CO)C(=O)N[C@@H](C)C(=O)N[C@@H](CCC(=O)O)C(=O)N[C@@H](CC(C)C)C(=O)N[C@@H](Cc1c[nH]cn1)C(=O)N[C@@H](CCCCNC(=O)COCCOCCNC(=O)COCCOCCNC(=O)CC[C@H](NC(=O)CCCCCCCCCCCCCCCCCCC(=O)O)C(=O)O)C(=O)N[C@@H](CC(C)C)C(=O)N[C@@H](C)C(=O)N[C@H](C(=O)N[C@@H](CCC(=O)O)C(=O)N1CCC[C@H]1C(=O)N[C@@H](CCCNC(=N)N)C(=O)N[C@H](C(=O)N[C@@H](CCC(=O)O)C(=O)N[C@H](C(=O)NCC(=O)N[C@@H](CO)C(=O)NCC(=O)N[C@@H](CO)C(=O)N1CCC[C@H]1C(N)=O)[C@@H](C)O)[C@@H](C)O)[C@@H](C)O)[C@@H](C)O)[C@@H](C)O)[C@@H](C)CC [Compound 162]
2,1.0,CC[C@H](C)[C@H](NC(=O)[C@H](CCC(=O)O)NC(=O)[C@H](CCC(=O)O)NC(=O)[C@H](CC(C)C)NC(=O)[C@H](CC(C)C)NC(=O)[C@H](CCCCNC(=O)COCCOCCNC(=O)COCCOCCNC(=O)CC[C@H](NC(=O)CCCCCCCCCCCCCCCCCCC(=O)O)C(=O)O)NC(=O)[C@H](CO)NC(=O)[C@H](Cc1ccc(O)cc1)NC(=O)[C@H](CC(=O)O)NC(=O)[C@H](CO)NC(=O)[C@@H](NC(=O)[C@H](Cc1ccccc1)NC(=O)[C@@H](NC(=O)CNC(=O)[C@H](CCC(=O)O)NC(=O)C(C)(C)NC(=O)[C@@H](N)Cc1ccc(O)cc1)[C@@H](C)O)[C@@H](C)O)C(=O)N[C@@H](C)C(=O)N[C@@H](C)C(=O)N[C@@H](CCCNC(=N)N)C(=O)N[C@@H](CCC(=O)O)C(=O)N[C@@H](Cc1ccccc1)C(=O)N[C@H](C(=O)N[C@@H](CCC(=O)O)C(=O)N[C@@H](Cc1c[nH]c2ccccc12)C(=O)N[C@@H](CC(C)C)C(=O)N[C@@H](CC(C)C)C(=O)N[C@@H](C)C(=O)NCC(=O)NCC(=O)N1CCC[C@H]1C(=O)N[C@@H](CO)C(=O)N[C@@H](CO)C(=O)NCC(=O)N[C@@H](C)C(=O)NCC(=O)N[C@@H](CCC(N)=O)C(=O)N[C@@H](C)C(=O)N1CCC[C@H]1C(=O)NCC(=O)N[C@@H](CCC(=O)O)C(=O)N[C@@H](C)C(=O)N1CCC[C@H]1C(=O)NCC(=O)N[C@@H](C)C(=O)N[C@@H](CO)C(=O)N[C@@H](CCC(=O)O)C(=O)N[C@@H](CC(C)C)C(=O)N[C@@H](CO)C(=O)N[C@H](C(=O)N[C@@H](C)C(=O)N[C@@H](C)C(=O)N[C@@H](CC(C)C)C(=O)NCC(=O)N[C@@H](CCCNC(=N)N)C(=O)N[C@@H](CC(C)C)C(=O)N[C@@H](CO)C(=O)N[C@@H](C)C(=O)N[C@@H](CCC(=O)O)C(=O)N[C@@H](CC(C)C)C(=O)N[C@@H](Cc1c[nH]cn1)C(=O)N[C@@H](CCC(N)=O)C(=O)N[C@@H](CC(C)C)C(=O)N[C@@H](C)C(=O)N[C@H](C(=O)N[C@@H](CC(C)C)C(=O)N1CCC[C@H]1C(=O)N[C@@H](CCCNC(=N)N)C(=O)N[C@H](C(=O)N[C@@H](CCC(=O)O)C(=O)N[C@H](C(=O)NCC(=O)N[C@@H](CO)C(=O)NCC(=O)N[C@@H](CO)C(=O)N1CCC[C@H]1C(N)=O)[C@@H](C)O)[C@@H](C)O)[C@@H](C)O)[C@@H](C)O)[C@@H](C)CC [Compound 171]
3,0.9,CC[C@H](C)[C@H](NC(=O)[C@H](CCC(=O)O)NC(=O)[C@H](CCC(=O)O)NC(=O)[C@H](CC(C)C)NC(=O)[C@H](CC(C)C)NC(=O)[C@H](CCCCNC(=O)COCCOCCNC(=O)COCCOCCNC(=O)CC[C@H](NC(=O)CCCCCCCCCCCCCCCCCCC(=O)O)C(=O)O)NC(=O)[C@H](CO)NC(=O)[C@H](Cc1ccc(O)cc1)NC(=O)[C@H](CC(=O)O)NC(=O)[C@H](CO)NC(=O)[C@@H](NC(=O)[C@H](Cc1ccccc1)NC(=O)[C@@H](NC(=O)CNC(=O)[C@H](CCC(=O)O)NC(=O)C(C)(C)NC(=O)[C@@H](N)Cc1ccc(O)cc1)[C@@H](C)O)[C@@H](C)O)C(=O)N[C@@H](C)C(=O)N[C@@H](C)C(=O)N[C@@H](CCCNC(=N)N)C(=O)N[C@@H](CCC(=O)O)C(=O)N[C@@H](Cc1ccccc1)C(=O)N[C@H](C(=O)N[C@@H](CCC(=O)O)C(=O)N[C@@H](Cc1c[nH]c2ccccc12)C(=O)N[C@@H](CC(C)C)C(=O)N[C@@H](CC(C)C)C(=O)N[C@@H](C)C(=O)NCC(=O)NCC(=O)N1CCC[C@H]1C(=O)N[C@@H](CO)C(=O)N[C@@H](CO)C(=O)NCC(=O)N[C@@H](C)C(=O)NCC(=O)N[C@@H](CCC(N)=O)C(=O)N[C@@H](C)C(=O)N1CCC[C@H]1C(=O)NCC(=O)N[C@@H](CCC(=O)O)C(=O)N[C@@H](C)C(=O)N1CCC[C@H]1C(=O)NCC(=O)N[C@@H](C)C(=O)N[C@@H](CO)C(=O)N[C@@H](CCC(=O)O)C(=O)N[C@@H](CC(C)C)C(=O)N[C@@H](CO)C(=O)N[C@H](C(=O)N[C@@H](C)C(=O)N[C@@H](C)C(=O)N[C@@H](CC(C)C)C(=O)NCC(=O)N[C@@H](CCCNC(=N)N)C(=O)N[C@@H](CC(C)C)C(=O)N[C@@H](CO)C(=O)N[C@@H](C)C(=O)N[C@@H](CCC(=O)O)C(=O)N[C@@H](CC(C)C)C(=O)N[C@@H](Cc1c[nH]cn1)C(=O)N[C@@H](CCC(N)=O)C(=O)N[C@@H](CC(C)C)C(=O)N[C@@H](C)C(=O)N[C@H](C(=O)N[C@@H](CCC(=O)O)C(=O)N1CCC[C@H]1C(=O)N[C@@H](CCCNC(=N)N)C(=O)N[C@H](C(=O)N[C@@H](CCC(=O)O)C(=O)N[C@H](C(=O)NCC(=O)N[C@@H](CO)C(=O)NCC(=O)N[C@@H](CO)C(=O)N1CCC[C@H]1C(N)=O)[C@@H](C)O)[C@@H](C)O)[C@@H](C)O)[C@@H](C)O)[C@@H](C)CC [Compound 172]
4,0.7,CC[C@H](C)[C@H](NC(=O)[C@H](CCC(=O)O)NC(=O)[C@H](CCC(=O)O)NC(=O)[C@H](CC(C)C)NC(=O)[C@H](CC(C)C)NC(=O)[C@@H](NC(=O)[C@H](CO)NC(=O)[C@H](Cc1ccc(O)cc1)NC(=O)[C@H](CC(=O)O)NC(=O)[C@H](CO)NC(=O)[C@@H](NC(=O)[C@H](Cc1ccccc1)NC(=O)[C@@H](NC(=O)CNC(=O)[C@H](CCC(=O)O)NC(=O)C(C)(C)NC(=O)[C@@H](N)Cc1ccc(O)cc1)[C@@H](C)O)[C@@H](C)O)[C@@H](C)CC)C(=O)N[C@@H](C)C(=O)N[C@@H](C)C(=O)N[C@@H](CCCNC(=N)N)C(=O)N[C@@H](CCC(=O)O)C(=O)N[C@@H](Cc1ccccc1)C(=O)N[C@H](C(=O)N[C@@H](CCC(=O)O)C(=O)N[C@@H](Cc1c[nH]c2ccccc12)C(=O)N[C@@H](CC(C)C)C(=O)N[C@@H](CC(C)C)C(=O)N[C@@H](C)C(=O)NCC(=O)NCC(=O)N1CCC[C@H]1C(=O)N[C@@H](CO)C(=O)N[C@@H](CO)C(=O)NCC(=O)N[C@@H](C)C(=O)NCC(=O)N[C@@H](C)C(=O)N[C@@H](CO)C(=O)N[C@@H](CCC(N)=O)C(=O)N[C@@H](CC(C)C)C(=O)N[C@@H](CO)C(=O)N[C@H](C(=O)N[C@@H](C)C(=O)N[C@@H](CCC(N)=O)C(=O)N[C@H](C(=O)N[C@@H](CCC(N)=O)C(=O)N[C@@H](CCCNC(=N)N)C(=O)N[C@@H](CC(C)C)C(=O)N[C@@H](CO)C(=O)N[C@@H](C)C(=O)N[C@@H](CCC(=O)O)C(=O)N[C@@H](CC(C)C)C(=O)N[C@@H](Cc1c[nH]cn1)C(=O)N[C@@H](CCCCNC(=O)COCCOCCNC(=O)COCCOCCNC(=O)CC[C@H](NC(=O)CCCCCCCCCCCCCCCCCCC(=O)O)C(=O)O)C(=O)N[C@@H](CC(C)C)C(=O)N[C@@H](C)C(=O)N[C@H](C(=O)N[C@@H](CCC(=O)O)C(=O)N1CCC[C@H]1C(=O)N[C@@H](CCCNC(=N)N)C(=O)N[C@H](C(=O)N[C@@H](CCC(=O)O)C(=O)N[C@H](C(=O)NCC(=O)N[C@@H](CO)C(=O)NCC(=O)N[C@@H](CO)C(=O)N1CCC[C@H]1C(N)=O)[C@@H](C)O)[C@@H](C)O)[C@@H](C)O)[C@@H](C)O)[C@@H](C)O)[C@@H](C)CC [Compound 180]

# — patent publication US20260174875A1 (Novo Nordisk A/S, priority 2023, published 2026)
